According to patent US10183927B2, “Crystalline forms of C21H22Cl2N4O2” (BIOMED VALLEY DISCOVERIES, INC., priority 2015, dated 2019):
Structures can show the parent of a compound that is named as a salt.

Assay: Interconversion of solid forms as a function of relative humidity
Format: physicochemical
Description: A vessel containing 4-(5-Chloro-2-isopropylaminopyridin-4-yl)-1H-pyrrole-2-carboxylic acid [1-(3-chlorophenyl)-2-hydroxyethyl]amide Form A was purged with dry nitrogen and relative humidity was monitored. After about 73 minutes the relative humidity had decreased from 36.9% to 1.0%.

Row | solid form upon sorption of water (sorption of water) | SMILES | solid form after purging with dry nitrogen (relative humidity decreased from 36.9% to 1.0% after about 73 minutes)
1 |  | CC(C)Nc1cc(-c2c[nH]c(C(=O)N[C@H](CO)c3cccc(Cl)c3)c2)c(Cl)cn1 [Form A, 4-(5-Chloro-2-isopropylaminopyridin-4-yl)-1H-pyrrole-2-carboxylic acid [1-(3-chlorophenyl)-2-hydroxyethyl]amide HCl hydrate] | determined to be a new form, designated Form D
2 | observed to be Form A | CC(C)Nc1cc(-c2c[nH]c(C(=O)N[C@H](CO)c3cccc(Cl)c3)c2)c(Cl)cn1 [Form D, 4-(5-Chloro-2-isopropylaminopyridin-4-yl)-1H-pyrrole-2-carboxylic acid [1-(3-chlorophenyl)-2-hydroxyethyl]amide HCl] | 
